Measured values from US20150315218A1, “SALTS OF PRODRUGS OF PIPERAZINE AND SUBSTITUTED PIPERIDINE ANTIVIRAL AGENTS” (Bristol-Myers Squibb Company, priority 2004, published 2015).
Structures can show the parent of a compound that is named as a salt.

Key:
[1] = Stability of prodrug in fresh EDTA blood (rat); conditions: for Ibb: Ibb in fresh rat EDTA blood, 37° C., n = 2
Description: (§2) The stability of Iab was studied in fresh blood and serum from rat, dog, monkey and human (n=2). The blood was collected in vacutainers containing K2EDTA (Becton Dickinson, Franklin Lakes, N.J.). The serum was collected in vacutainers containing no anticoagulant. Iab was incubated at a starting concentration of approximately 10 μM for 60-90 min at 37° C. Serial samples were taken at the pre-determined times. Aliquots of blood samples (200 μL) were first mixed with 100 μL of water followed by 400 μL of acetonitrile. The serum samples (50 μL) were added into microtainers containing K2EDTA (Becton Dickinson, Franklin Lakes, N.J.) followed by the addition of 100 μL of acetonitrile. The supernatant was analyzed for both Iab and IVa by LC/MS/MS. The stability of Ibb was studied in fresh blood and serum from rat, dog, monkey and human (n=2). The blood was collected in vacutainers containing K2EDTA (Becton Dickinson, Franklin Lakes, N.J.). The serum was collected in vacutainers containing no anticoagulant. Ibb was incubated at a starting concentration of approximately 15 μM for 90 min at 37° C. Serial samples were taken at the pre-determined times. Aliquots of blood samples (200 μL) were first mixed with 100 μL of water followed by 400 μL of acetonitrile. The serum samples (50 μL) were added into microtainers containing K2EDTA (Becton Dickinson, Franklin Lakes, N.J.) followed by the addition of 100 μL of acetonitrile. […] The stability of Icb was studied in fresh blood and serum from rat, dog, monkey and human (n=2). The blood was collected in vacutainers containing K2EDTA (Becton Dickinson, Franklin Lakes, N.J.). The serum was collected in vacutainers containing no anticoagulant. Icb was incubated at a starting concentration of approximately 10 μM for 90 min at 37° C. Serial samples were taken at the pre-determined times. Aliquots of blood samples (200 μL) were first mixed with 100 μL of water followed by 400 μL of acetonitrile. The serum samples (50 μL) were added into microtainers containing K2EDTA (Becton Dickinson, Franklin Lakes, N.J.) followed by the addition of 100 μL of acetonitrile.

physchem = conditions: aqueous solution (pH range 1.5 to 8.7), aqueous buffer, thermodynamic from solid
[2] = Stability (hydrolysis) of prodrug in fresh serum (dog); conditions: Ibb in fresh dog serum, 37° C., n = 2
Description: as §2

rat hepatocytes = experiment: Hydrolysis of prodrug in hepatocytes (rat); type: in vitro ADME; conditions: rat hepatocytes, qualitative
Description: (§1) The in vitro intrinsic clearance of Ibb in hepatocytes (Clint) was calculated as follows: Clint(μL/min/million cells)=Rate/CE where Rate is the rate of metabolism in hepatocytes (pmol/min/million cells), and CE is the concentration of Ibb in the incubation. The in vitro intrinsic clearance of Icb in hepatocytes (Clint) was calculated as follows: Clint(μL/min/million cells)=Rate/CE where Rate is the rate of metabolism in hepatocytes (pmol/min/million cells), and CE is the concentration of Icb in the incubation.

in vitro [3] = conditions: dog, serum
Description: as §2

in vitro [4] = conditions: monkey, serum
[5] = Stability (hydrolysis) of prodrug in fresh serum (rat); conditions: Ibb in fresh rat serum, 37° C., n = 2
human hepatocytes = experiment: Hydrolysis of prodrug in hepatocytes (human); type: in vitro ADME; conditions: human hepatocytes, qualitative
Description: as §1

[6] = Stability of prodrug in fresh EDTA blood (monkey); conditions: for Ibb: Ibb in fresh monkey EDTA blood, 37° C., n = 2
Description: as §2

## O=C(C(=O)N1CCN(C(=O)c2ccccc2)CC1)c1cn(COP(=O)(O)O)c2c(-n3ccnn3)ncc(F)c12 [Ibb, [3-[(4-benzoylpiperazin-1-yl)(oxo)acetyl]-4-fluoro-7-(1H-1,2,3-triazol-1-yl)-1H-pyrrolo[2,3-c]pyridin-1-yl]methyl dihydrogen phosphate, L-lysine salt (1:1)]
[1]; 0 min
  Ibb: 15 µM
[1]; 15 min
  Ibb: 15 µM
[1]; 30 min
  Ibb: 18 µM
[1]; 45 min
  Ibb: 15 µM
[1]; 60 min
  Ibb: 16 µM
[1]; 90 min
  Ibb: 17 µM
[1]; rat blood, 37°C, 60 min (Iab) or 90 min (Ibb, Icb)
  conversion of prodrug to parent in blood containing EDTA: < 2%
physchem
  solubility: > 11 mg/mL
[2]; 0 min
  Ibb: 13 µM
[2]; 15 min
  Ibb: 12 µM
[2]; 30 min
  Ibb: 11 µM
[2]; 45 min
  Ibb: 10 µM
[2]; 60 min
  Ibb: 10 µM
[2]; 90 min
  Ibb: 8.9 µM
Rat hepatocytes
  hydrolysis in the presence of hepatocytes: hydrolyzed
In vitro [3]
  half-life at 15 μM: 2.78 h
In vitro [4]
  half-life at 15 μM: 0.25 h
[5]; 0 min
  Ibb: 12 µM
[5]; 15 min
  Ibb: 9.4 µM
[5]; 30 min
  Ibb: 9.2 µM
[5]; 45 min
  Ibb: 9.4 µM
[5]; 60 min
  Ibb: 9.3 µM
[5]; 90 min
  Ibb: 9.0 µM
Human hepatocytes
  hydrolysis in the presence of hepatocytes: hydrolyzed
[6]; 0 min
  Ibb: 16 µM
[6]; 15 min
  Ibb: 19 µM
[6]; 30 min
  Ibb: 18 µM
[6]; 45 min
  Ibb: 18 µM
[6]; 60 min
  Ibb: 19 µM
[6]; 90 min
  Ibb: 17 µM
[6]; monkey blood, 37°C, 60 min (Iab) or 90 min (Ibb, Icb)
  conversion of prodrug to parent in blood containing EDTA: < 2%
